Patent publication US20250313533A1, “QUINOLINE CARBOXYLIC ACID ESTER COMPOUND AND PREPARATION METHOD AND USE THEREOF” (priority 2019, published 2025)

What was measured:
[1] = tested on: pathogenic bacteria causing black rot in Chinese cabbages; assay: In vitro bactericidal activity, black rot in Chinese cabbages; type: cell-based, xanthomonas; details: Xanthomonas, read-out: inhibitory rate; for inhibition at 1 ppm: dosage 1 ppm; for inhibition at 5 ppm: dosage 5 ppm
bacterial blight in rice = assay: whole plant or invertebrate; details: Oryza sativa, read-out: efficacy against bacterial blight in rice
[2] = tested on: pathogenic bacteria causing black shank in potatoes; assay: In vitro bactericidal activity, black shank in potatoes; type: cell-based; details: read-out: inhibitory rate; for inhibition at 1 ppm: dosage 1 ppm; for inhibition at 5 ppm: dosage 5 ppm
[3] = tested on: indoor potted cucumber seedlings; assay: Effect of improving growth and development of crops; type: in vivo; set-up: Rate of growth rate increase (%): concentration or dose not given beside the values; details: versus blank control; for Rate of chlorophyll content increase (%) / Rate of leaf area increase (%): 14 days after application; for Rate of growth rate increase (%): plant height 14 days after application; for Rate of leaf area increase (%): second leaf
Outline: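 Pot-grown seedlings kept indoors; height plus second-leaf length (base to tip) and width (upper shoulder) taken pre-treatment and at day 14. Derived: growth-rate increase %, leaf area gain, SPAD chlorophyll gain.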

black shank in potatoes = assay: Living crops in vivo protective activity, potatoes (root irrigation); details: Solanum tuberosum, read-out: efficacy against black shank in potatoes; for pest or weed control at 5 ppm: dosage 5 ppm; for pest or weed control at 10 ppm: dosage 10 ppm
Procedure: Root irrigation was carried out on the potatoes for tests according to the designed concentration of the agents. The dosage for each plant was 200 mL and was kept consistent (also for the control). The black shank bacteria were inoculated on the second day after the application. The results were investigated according to the disease condition.

[4] = tested on: bacterial wilt in tobacco; assay: whole plant or invertebrate; details: Nicotiana tabacum, read-out: efficacy against bacterial wilt in tobacco
[5] = tested on: pathogenic bacteria causing bacterial blight in rice; assay: whole plant or invertebrate; type: cell-based, xanthomonas; details: read-out: inhibitory rate
[6] = tested on: pathogenic bacteria causing bacterial wilt in cassava; assay: organism not typed; type: cell-based; details: read-out: inhibitory rate
[7] = tested on: soft rot in Chinese cabbages; assay: whole plant or invertebrate; details: 48 h, read-out: efficacy against soft rot in Chinese cabbages
[8] = tested on: pathogenic bacteria causing fire blight in pears; assay: In vitro bactericidal activity, fire blight in pears; type: cell-based, erwinia; details: Erwinia, read-out: inhibitory rate; for inhibition at 1 ppm: dosage 1 ppm; for inhibition at 5 ppm: dosage 5 ppm
cucumber seedlings = assay: Safety for plant growth after application; type: in vivo; details: dosage 200 ppm
Outline: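 Safety to the crop is assessed on cucumber seedlings in indoor pots by tracking how treatment alters leaf area, chlorophyll level and height growth rate.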

[9] = tested on: stem rot in sweet potatoes; assay: whole plant or invertebrate; details: read-out: efficacy against stem rot in sweet potatoes
[10] = tested on: pathogenic bacteria causing bacterial angular leaf spot in cucumbers; assay: In vitro bactericidal activity, bacterial angular leaf spot in cucumbers; type: cell-based, pseudomonas; details: read-out: inhibitory rate; for inhibition at 1 ppm: dosage 1 ppm; for inhibition at 5 ppm: dosage 5 ppm
[11] = tested on: fruit blotch in watermelons; assay: whole plant or invertebrate; details: read-out: efficacy against fruit blotch in watermelons
[12] = tested on: pathogenic bacteria causing fruit blotch in watermelons; assay: In vitro bactericidal activity, fruit blotch in watermelons; type: cell-based, acidovorax; details: read-out: inhibitory rate; for inhibition at 1 ppm: dosage 1 ppm; for inhibition at 5 ppm: dosage 5 ppm
[13] = tested on: pathogenic bacteria causing stem rot in sweet potatoes; assay: In vitro bactericidal activity, stem rot in sweet potatoes; type: cell-based, dikia; details: read-out: inhibitory rate; for inhibition at 1 ppm: dosage 1 ppm; for inhibition at 5 ppm: dosage 5 ppm
[14] = tested on: pathogenic bacteria causing bacterial wilt in tobacco; assay: whole plant or invertebrate; type: cell-based, ralstonia; details: read-out: inhibitory rate

Row | Compound | inhibition at 1 ppm [1] [%] | inhibition at 5 ppm [1] [%] | pest or weed control at 5 ppm (bacterial blight in rice) [%] | pest or weed control at 10 ppm (bacterial blight in rice) [%] | inhibition at 1 ppm [2] [%] | inhibition at 5 ppm [2] [%] | Rate of chlorophyll content increase (%) [3] [%] | Rate of growth rate increase (%) [3] [%] | Rate of leaf area increase (%) [3] [%] | pest or weed control at 5 ppm (black shank in potatoes) [%] | pest or weed control at 10 ppm (black shank in potatoes) [%] | pest or weed control at 5 ppm [4] [%] | pest or weed control at 10 ppm [4] [%] | inhibition at 1 ppm [5] [%] | inhibition at 5 ppm [5] [%] | inhibition at 1 ppm [6] [%] | inhibition at 5 ppm [6] [%] | pest or weed control at 5 ppm [7] [%] | pest or weed control at 10 ppm [7] [%] | inhibition at 1 ppm [8] [%] | further results
1 | COc1cc2c(cc1F)c(=O)c(C(=O)OCCO)cn2C1CC1 [Compound 264] | ≥ 90 | ≥ 90 | ≥ 90 | ≥ 90 | ≥ 90 | ≥ 90 | 12 | 9 | 11 | ≥ 90 | ≥ 90 | ≥ 90 | ≥ 90 | ≥ 90 | ≥ 90 | ≥ 90 | ≥ 90 | ≥ 90 | ≥ 90 | ≥ 90 | inhibition at 5 ppm [8]: ≥ 90%; safety for plant growth (discoloration, necrosis, wilt, malformation) (cucumber seedlings): safe for plant growth; pest or weed control at 5 ppm [9]: ≥ 90%; pest or weed control at 10 ppm [9]: ≥ 90%; inhibition at 1 ppm [10]: ≥ 90%; inhibition at 5 ppm [10]: ≥ 90%; pest or weed control at 5 ppm [11]: ≥ 90%; pest or weed control at 10 ppm [11]: ≥ 90%; inhibition at 1 ppm [12]: ≥ 90%; inhibition at 5 ppm [12]: ≥ 90%; inhibition at 1 ppm [13]: ≥ 90%; inhibition at 5 ppm [13]: ≥ 90%; inhibition at 1 ppm [14]: ≥ 90%; inhibition at 5 ppm [14]: ≥ 90%
2 | O=C(OCCCO)c1cn(C2CC2)c2cc(F)ccc2c1=O [Compound 207] | ≥ 90 | ≥ 90 | ≥ 90 | ≥ 90 | ≥ 90 | ≥ 90 | 13 | 6 | 10 | ≥ 90 | ≥ 90 | ≥ 90 | ≥ 90 | ≥ 90 | ≥ 90 | ≥ 90 | ≥ 90 | ≥ 90 | ≥ 90 | ≥ 90 | inhibition at 5 ppm [8]: ≥ 90%; safety for plant growth (discoloration, necrosis, wilt, malformation) (cucumber seedlings): safe for plant growth; pest or weed control at 5 ppm [9]: ≥ 90%; pest or weed control at 10 ppm [9]: ≥ 90%; inhibition at 1 ppm [10]: ≥ 90%; inhibition at 5 ppm [10]: ≥ 90%; pest or weed control at 5 ppm [11]: ≥ 90%; pest or weed control at 10 ppm [11]: ≥ 90%; inhibition at 1 ppm [12]: ≥ 90%; inhibition at 5 ppm [12]: ≥ 90%; inhibition at 1 ppm [13]: ≥ 90%; inhibition at 5 ppm [13]: ≥ 90%; inhibition at 1 ppm [14]: ≥ 90%; inhibition at 5 ppm [14]: ≥ 90%
3 | COCCOC(=O)c1cn(C2CC2)c2cc(OC(C)(C)C)c(F)cc2c1=O [Compound 287] | ≥ 90 | ≥ 90 | ≥ 90 | ≥ 90 | ≥ 90 | ≥ 90 | 13 | 10 | 10 | ≥ 90 | ≥ 90 | ≥ 90 | ≥ 90 | ≥ 90 | ≥ 90 | ≥ 90 | ≥ 90 | ≥ 90 | ≥ 90 | ≥ 90 | inhibition at 5 ppm [8]: ≥ 90%; safety for plant growth (discoloration, necrosis, wilt, malformation) (cucumber seedlings): safe for plant growth; pest or weed control at 5 ppm [9]: ≥ 90%; pest or weed control at 10 ppm [9]: ≥ 90%; inhibition at 1 ppm [10]: ≥ 90%; inhibition at 5 ppm [10]: ≥ 90%; pest or weed control at 5 ppm [11]: ≥ 90%; pest or weed control at 10 ppm [11]: ≥ 90%; inhibition at 1 ppm [12]: ≥ 90%; inhibition at 5 ppm [12]: ≥ 90%; inhibition at 1 ppm [13]: ≥ 90%; inhibition at 5 ppm [13]: ≥ 90%; inhibition at 1 ppm [14]: ≥ 90%; inhibition at 5 ppm [14]: ≥ 90%
4 | COCCOC(=O)c1cn(C2CC2)c2cc(N(C)C)c(F)cc2c1=O [Compound 414] | ≥ 90 | ≥ 90 | ≥ 90 | ≥ 90 | ≥ 90 | ≥ 90 | 15 | 12 | 18 | ≥ 90 | ≥ 90 | ≥ 90 | ≥ 90 | ≥ 90 | ≥ 90 | ≥ 90 | ≥ 90 | ≥ 90 | ≥ 90 | ≥ 90 | inhibition at 5 ppm [8]: ≥ 90%; safety for plant growth (discoloration, necrosis, wilt, malformation) (cucumber seedlings): safe for plant growth; pest or weed control at 5 ppm [9]: ≥ 90%; pest or weed control at 10 ppm [9]: ≥ 90%; inhibition at 1 ppm [10]: ≥ 90%; inhibition at 5 ppm [10]: ≥ 90%; pest or weed control at 5 ppm [11]: ≥ 90%; pest or weed control at 10 ppm [11]: ≥ 90%; inhibition at 1 ppm [12]: ≥ 90%; inhibition at 5 ppm [12]: ≥ 90%; inhibition at 1 ppm [13]: ≥ 90%; inhibition at 5 ppm [13]: ≥ 90%; inhibition at 1 ppm [14]: ≥ 90%; inhibition at 5 ppm [14]: ≥ 90%
